Test results reported in patent US10703751B2, “Amino-imidazopyridine derivatives as Janus kinase inhibitors and pharmaceutical use thereof” (LEO Pharma A/S, priority 2017, dated 2020).
Like-named read-outs stand apart in the source and are kept apart here.

Legend:
CYP1A2 = CYP1A2 (Homo sapiens (Human), UniProt P05177); test: Reversible CYP inhibition, 1A2; format: in vitro ADME
Procedure: (§1) Reversible CYP inhibition, time dependent CYP inhibition (TDI) and CYP induction was tested at Cyprotex PLC according to authority guidance.

TYK2 = TYK2 (Homo sapiens (Human), UniProt P29597); test: TYK2 kinase assay (HTRF); format: biochemical
TYK2, sequence (P29597 871-1187): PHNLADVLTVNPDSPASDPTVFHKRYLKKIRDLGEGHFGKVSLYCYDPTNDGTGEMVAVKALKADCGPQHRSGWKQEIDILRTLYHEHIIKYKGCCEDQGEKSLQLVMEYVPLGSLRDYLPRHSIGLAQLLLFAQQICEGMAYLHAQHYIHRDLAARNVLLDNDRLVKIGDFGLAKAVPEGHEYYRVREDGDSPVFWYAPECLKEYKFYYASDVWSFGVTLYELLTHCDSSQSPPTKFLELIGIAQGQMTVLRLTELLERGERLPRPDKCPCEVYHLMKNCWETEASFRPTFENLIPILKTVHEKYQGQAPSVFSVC
Procedure: (§2) Human baculovirus-expressed Janus kinase (JAK) 1, 2, 3 and tyrosin kinase (TYK) 2 were purchased from Carna Biosciences, Inc (#08-144, -045, -046, -147 resp.). All four purified enzymes contain only the catalytic domain. JAK1 (aa 850-1154) and TYK2 (aa 871-1187) are expressed with an N-terminally fused GST-tag, and JAK2 and JAK3 with an N-terminally fused His-tag. Inhibition of phosphorylation of a synthetic peptide was measured in an HTRF-based assay (CisBio #62TKOPEC). First, 75 nL of test compound solution (100% DMSO) was added to a white shallow 384-well plate (NUNC #264706) using a Labcyte ECHO 550 liquid handler. Thereafter, 1 μL of compound dilution buffer (50 mM HEPES, 0.05% bovine serum albumin) and 2 μL of TK solution (TK substrate-biotin in kinase buffer [1× enzymatic buffer from HTRFKinEASE TK kit, 1 mM DTT]) was added. Then, 5 μL kinase-ATP mix (prepared in kinase buffer) was added to the wells and the plates were incubated at RT for 20 (JAK2, 3 and TYK2) to 40 (JAK1) min. For all four kinases a concentration of ATP that corresponded to the Km for ATP was used. The final concentrations of buffers, substrate, kinase and ATP were: JAK1: 50 mM Hepes buffer pH 7.0, 0.01% BSA, 10 mM MgCl2, 1 mM DTT, 7 μM ATP, 50 nM SEB, 1 μM TK Substrate-Biotin and 5 ng/well JAK1; JAK2: 50 mM Hepes buffer pH 7.0, 0.01% BSA, 5 mM MgCl2, 1 mM DTT, 4 μM ATP, 1 μM TK Substrate-Biotin and 0.1 ng/well JAK2; JAK3: 50 mM Hepes buffer pH 7.0, 0.01% BSA, 5 mM MgCl2, 1 mM DTT, 2 μM ATP, 1 μM TK Substrate-Biotin and 0.3 ng/well JAK3; TYK2: 50 mM Hepes buffer pH 7.0, 0.01% BSA, 5 mM MgCl2, 1 mM DTT, 13 μM ATP, 50 nM SEB, 1 μM TK Substrate-Biotin and 0.8 ng/well TYK2. Thereafter, the kinase reaction was stopped by adding 4 μL detection mix (final concentrations: 50 mM Hepes buffer pH 7.0, 0.01% BSA, 0.8 M KF, 20 mM EDTA, 42 nM Streptavidin-XL665 and 1:400 STK Ab Cryptate) and the plates were incubated overnight in the dark. A PerkinElmer Envision reader was used to quantify the HTRF signal using the following filters; 320 nm excitation filter, 665 nm emission filter and a 615 nm 2nd emission filter. A ratio ((665/615)×10^4) was calculated for each well.

JAK3 = JAK3 (Homo sapiens (Human), UniProt P52333); test: JAK3 kinase assay (HTRF); format: biochemical
JAK3, sequence (P52333 822-1111): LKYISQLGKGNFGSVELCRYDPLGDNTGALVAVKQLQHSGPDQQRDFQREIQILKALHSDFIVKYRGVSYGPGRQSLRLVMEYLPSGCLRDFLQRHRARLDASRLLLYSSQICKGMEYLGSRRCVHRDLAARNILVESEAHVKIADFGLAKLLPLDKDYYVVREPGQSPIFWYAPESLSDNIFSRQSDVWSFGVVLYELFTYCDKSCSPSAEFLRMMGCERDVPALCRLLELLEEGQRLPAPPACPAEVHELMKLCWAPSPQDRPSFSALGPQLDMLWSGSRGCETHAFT
Procedure: as §2

JAK2 = JAK2 (Homo sapiens (Human), UniProt O60674); test: JAK2 kinase assay (HTRF); format: biochemical; details: ATP at Km (4 μM)
JAK2, sequence (O60674 849-1124): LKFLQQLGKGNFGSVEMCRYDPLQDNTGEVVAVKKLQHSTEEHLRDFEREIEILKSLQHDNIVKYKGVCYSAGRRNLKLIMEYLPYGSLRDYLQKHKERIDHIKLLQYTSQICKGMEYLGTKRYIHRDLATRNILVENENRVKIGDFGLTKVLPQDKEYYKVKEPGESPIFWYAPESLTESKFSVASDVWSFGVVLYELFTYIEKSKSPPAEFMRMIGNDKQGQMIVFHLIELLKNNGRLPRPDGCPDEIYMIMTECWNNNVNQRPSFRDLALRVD
Procedure: as §2

JAK1 = JAK1 (Homo sapiens (Human), UniProt P23458); test: JAK1 kinase assay (HTRF); format: biochemical; details: for JAK2/JAK1 ratio / JAK3/JAK1 ratio: ratio of the respective EC50
JAK1, sequence (P23458 850-1154): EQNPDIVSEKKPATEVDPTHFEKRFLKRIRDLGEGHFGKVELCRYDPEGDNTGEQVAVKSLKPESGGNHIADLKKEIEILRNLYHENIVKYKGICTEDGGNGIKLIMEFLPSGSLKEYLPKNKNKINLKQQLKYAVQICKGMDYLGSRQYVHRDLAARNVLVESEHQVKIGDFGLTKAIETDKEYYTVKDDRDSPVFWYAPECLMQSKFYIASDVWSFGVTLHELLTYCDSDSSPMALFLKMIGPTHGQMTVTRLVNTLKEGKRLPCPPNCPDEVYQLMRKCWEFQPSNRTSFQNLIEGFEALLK
Procedure: as §2

CYP2D6 = CYP2D6 (Homo sapiens (Human), UniProt P10635); test: Reversible CYP inhibition, 2D6; format: in vitro ADME; details: up to 50 μM for Example 3, up to 25 μM for Examples 644 and 641
CYP2D6, sequence (P10635 whole entry): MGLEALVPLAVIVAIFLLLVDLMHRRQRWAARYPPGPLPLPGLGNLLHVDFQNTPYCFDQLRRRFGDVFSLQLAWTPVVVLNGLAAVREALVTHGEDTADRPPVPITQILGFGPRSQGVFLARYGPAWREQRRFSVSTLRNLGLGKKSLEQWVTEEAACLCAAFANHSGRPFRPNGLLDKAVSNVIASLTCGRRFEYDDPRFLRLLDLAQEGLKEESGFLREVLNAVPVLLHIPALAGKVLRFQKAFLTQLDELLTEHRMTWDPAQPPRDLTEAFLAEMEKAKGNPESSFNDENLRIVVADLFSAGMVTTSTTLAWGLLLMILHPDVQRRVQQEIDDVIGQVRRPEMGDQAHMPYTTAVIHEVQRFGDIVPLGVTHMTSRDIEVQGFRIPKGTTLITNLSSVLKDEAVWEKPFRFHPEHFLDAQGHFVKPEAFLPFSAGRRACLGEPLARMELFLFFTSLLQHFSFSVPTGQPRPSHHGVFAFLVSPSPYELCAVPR
Procedure: as §1

STAT5 irfl-bla TF1 cells = test: STAT5 assay (EPO stimulated reporter cells); format: cell-based; details: Homo sapiens, TF-1; erythropoietin (EPO) 10 ng/mL
Procedure: Twenty-five μL of a STAT5 irfl-bla TF1 (Invitrogen # K1219) cell suspension was seeded with a density of about 10,000 cells/well in 384-well Black View-plates (PerkinElmer #6007460) with clear bottom in assay medium (Opti-MEM (Invitrogen #11058-021)+0.5% heat inactivated fetal bovine Serum (Invitrogen #10082-147)+1% non-essential amino acids (Invitrogen #11140-050)+1% sodium pyruvate (Invitrogen #11360-070)+1% penicillin/streptomycin (Invitrogen #15140-122)). The cell plates were incubated overnight in a humidified 37° C. air/CO2 (95%/5%) incubator. The following day, 125 nL of solutions of test compounds and reference compounds were transferred to cell plates using the Labcyte Echo 550 liquid handler. The plates were then incubated for 1 h in a humidified 37° C. air/CO2 (95%/5%) incubator. Hereafter recombinant human erythropoietin (EPO) (Invitrogen # PHC9634) was added to the plates also using the Labcyte Echo 550 to a final concentration of 10 ng/mL. The cells were then incubated for 4½-5 h in a humidified 37° C. air/CO2 (95%/5%) incubator. 8 μL of LiveBLAzer substrate mixture (Invitrogen # K1095) were then added to the assay plates, which were then incubated overnight at RT. Fluorescence was then measured: Excitation: 405 nm; Emission: 460 nm (green channel), Emission: 535 nm (blue channel). Background was subtracted in both emission channels and the ratio 460/535 nm was calculated for each well.

CYP3A4 = CYP3A4 (Homo sapiens (Human), UniProt P08684); test: Reversible CYP inhibition, 3A4; format: in vitro ADME; details: for IC50: up to 50 μM for Example 3, up to 25 μM for Examples 644 and 641
CYP3A4, sequence (P08684 whole entry): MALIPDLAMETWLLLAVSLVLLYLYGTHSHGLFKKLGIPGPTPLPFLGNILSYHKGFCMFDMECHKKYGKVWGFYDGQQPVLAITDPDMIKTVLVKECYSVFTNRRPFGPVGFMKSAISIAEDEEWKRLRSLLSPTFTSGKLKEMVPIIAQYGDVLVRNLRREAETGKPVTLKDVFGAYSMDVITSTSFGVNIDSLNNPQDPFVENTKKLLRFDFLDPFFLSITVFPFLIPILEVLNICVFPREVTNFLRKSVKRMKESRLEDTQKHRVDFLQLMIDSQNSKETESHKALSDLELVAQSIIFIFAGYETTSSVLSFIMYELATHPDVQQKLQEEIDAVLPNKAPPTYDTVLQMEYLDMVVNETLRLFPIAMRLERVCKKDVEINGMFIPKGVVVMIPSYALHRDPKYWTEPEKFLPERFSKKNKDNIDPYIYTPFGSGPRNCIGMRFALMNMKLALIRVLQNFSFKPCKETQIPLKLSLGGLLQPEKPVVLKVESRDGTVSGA
Procedure: as §1

[1] = reversible, up to 50 μM for Example 3, up to 25 μM for Examples 644 and 641, read-out: 1A2 IC50

CYP1A2, sequence (P05177 whole entry): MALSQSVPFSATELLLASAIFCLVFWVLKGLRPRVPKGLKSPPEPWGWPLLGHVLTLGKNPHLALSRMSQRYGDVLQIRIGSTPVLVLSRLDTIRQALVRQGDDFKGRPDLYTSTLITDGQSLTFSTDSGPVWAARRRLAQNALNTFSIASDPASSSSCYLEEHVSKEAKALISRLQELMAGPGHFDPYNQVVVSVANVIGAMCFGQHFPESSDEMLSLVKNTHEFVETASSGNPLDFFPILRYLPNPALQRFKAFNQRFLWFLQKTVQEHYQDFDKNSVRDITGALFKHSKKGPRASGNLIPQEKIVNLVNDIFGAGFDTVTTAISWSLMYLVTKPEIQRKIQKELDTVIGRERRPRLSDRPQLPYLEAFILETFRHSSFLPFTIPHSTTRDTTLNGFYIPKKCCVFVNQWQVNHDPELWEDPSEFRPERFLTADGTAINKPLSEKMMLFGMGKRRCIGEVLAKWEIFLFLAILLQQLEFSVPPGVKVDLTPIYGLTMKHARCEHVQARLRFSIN

Row | SMILES | IC50 (CYP1A2; [1]) [µM] | EC50 (TYK2; ATP at Km (13 μM)) [µM] | EC50 (JAK3; ATP at Km (2 μM)) [µM] | EC50 (JAK2) [µM] | EC50 (JAK1; ATP at Km (7 μM)) [µM] | JAK2/JAK1 ratio (JAK1) | JAK3/JAK1 ratio (JAK1) | IC50 (CYP2D6) [µM] | EC50 (STAT5 irfl-bla TF1 cells) [µM] | IC50 (CYP3A4) [µM] | IC50 (CYP1A2) [µM] | EC50 (TYK2) [µM] | EC50 (JAK3) [µM] | EC50 (JAK1) [µM] | CYP3A4 inhibition (in words) (CYP3A4)
1 | CNc1cc2c(cn1)nc([C@@H](C)O)n2[C@H]1CC[C@H](CC#N)CC1 [Example 3, trans-2-[4-[2-[(1R)-1-Hydroxyethyl]-6-(methylamino)imidazo[4,5-c]pyridin-1-yl]cyclohexyl]acetonitrile] | > 50 | 0.032 | 1.7 | 0.171 | 0.00348 | 51 | 489 | > 50 | 6.42 | > 50 |  |  |  |  | 
2 | C[C@@H](O)c1nc2cnc3[nH]ccc3c2n1[C@H]1CC[C@H](C#N)CC1 [Example 641 of WO2011086053] |  |  |  | 0.228 |  | 33 | 109 | > 25 | 5.74 | 10.9 | > 25 | 0.115 | 0.739 | 0.00681 | weak CYP3A4 inhibition
3 | C[C@@H](O)c1nc2cnc3[nH]ccc3c2n1[C@H]1CC[C@H](CC#N)CC1 [Example 644 of WO2011086053] | > 25 | 0.00332 | 0.0131 | 0.00334 | 0.00034 |  |  | > 25 | 0.123 | 10.8 |  |  |  |  | weak CYP3A4 inhibition
